Data from patent publication US20230203017A1, “Protein Kinase C Beta Inhibitors and Uses Thereof” (priority 2021, published 2023).
Entries after “also recorded” stand apart in the source; their conditions may differ. Where a name gives a salt, the structure may show the parent alone.

Legend:
Recombinant PKCβ = Recombinant PKCβ (Homo sapiens, UniProt P05771); assay: PKCb assay: phosphorylation of Histone H3 (Ser10) by recombinant PKCβ, immunoblot, no lipid activator; format: biochemical; details: basal PKCb, lipid activator not included; P-Ser10-Histone H3 by immunoblotting, 30° C., 6 minutes
Description: Recombinant PKCβ (11ng) was mixed with purified Histone H3 (20 ng) and incubated at 30° C. for 6 minutes and phosphorylated Histone H3 (P^ser10-Histone H3) assessed by immunoblotting using specific antibodies (FIG. 11). Lipid activator was not included our assay because we were interested in finding chemicals inhibiting PKCb in its basal state.

[1] = system: C57BL6 mouse model fed HFD or HFHC diet; assay: Efficacy of PKCβ inhibitors on diet-induced obesity and hepatic steatosis in C57BL6 mice; format: in vivo; details: for liver TG levels: diet-fed mice (FIGS. 12H, 12I); for weight gain, intraperitoneal administration / weight gain, oral administration: mice on high fat diet; for weight gain, intraperitoneal administration: i.p. (FIG. 12C); for weight gain, oral administration: oral gavage (FIG. 12D)
Description: FIG. 12E compares food intake in mice fed HFD for and the indicated PKCb inhibitor was administered by i.p. FIG. 12F compares food intake in mice fed HFD and the indicated PKCb inhibitor was administered orally by gavage.
To test and compare therapeutic efficacy of these inhibitors, the following experiment was set up in a C57BL6 mouse model (20 animals per study). C57BL6 mice (7 week old male mice) were fed either HFD or HFHC diet and were either untreated or treated on the same day with an indicated PKCb inhibitor. The PKCb inhibitor was administered to these mice either by i.p. or oral gavage.
The inhibitors were administered by i.p. (FIG. 12C) or gavage (FIG. 12D).

[2] = system: PKCβ activation of SREBP-1c; assay: SREBP-1c transactivation, Gal4-luciferase reporter with constitutively active PKCβ in HepG2 cells; format: cell-based, human; details: LY333,531 5 μM, PD98059 20 μM, GSK690693 1 μM
Description: (Gal4)5-luciferase reporter plasmid (0.6 μg) was co-transfected with a plasmid encoding either Gal4-DNA binding region (Gal4-DBD) or activation domain of SREBP-1 c linked to Gal4-DNA binding domain (Gal4-DBD-SREBP-1AD) (0.3 μg) (23) and pCMV-8-galactosidase (0.1 μg), along with constitutively active PKCβ cDNA (0.1 μg), in human hepatoma HepG2 cells in the absence or presence of LY333,531 (5 μM), PD98059 (20 μM) or GSK690693 (1 μM). Fold induction represens luciferase activity on PKCβ transfection relative to basal expression level in the absence of PKCβ expression vector (taken as 1). Luciferase activity was normalized to β-galactosidase activity.
To determine whether PKCβ deficiency affected the activation of hepatic SREBP-1c, a plasmid was used in which activation domain of SREBP-1c is fused to the Gal4-DBD and evaluated the activation of a Gal4-responsive reporter plasmid by overexpressed PKCβ in the absence or presence of indicated inhibitor.

Chain of Recombinant PKCβ (P05771 whole entry, species assumed): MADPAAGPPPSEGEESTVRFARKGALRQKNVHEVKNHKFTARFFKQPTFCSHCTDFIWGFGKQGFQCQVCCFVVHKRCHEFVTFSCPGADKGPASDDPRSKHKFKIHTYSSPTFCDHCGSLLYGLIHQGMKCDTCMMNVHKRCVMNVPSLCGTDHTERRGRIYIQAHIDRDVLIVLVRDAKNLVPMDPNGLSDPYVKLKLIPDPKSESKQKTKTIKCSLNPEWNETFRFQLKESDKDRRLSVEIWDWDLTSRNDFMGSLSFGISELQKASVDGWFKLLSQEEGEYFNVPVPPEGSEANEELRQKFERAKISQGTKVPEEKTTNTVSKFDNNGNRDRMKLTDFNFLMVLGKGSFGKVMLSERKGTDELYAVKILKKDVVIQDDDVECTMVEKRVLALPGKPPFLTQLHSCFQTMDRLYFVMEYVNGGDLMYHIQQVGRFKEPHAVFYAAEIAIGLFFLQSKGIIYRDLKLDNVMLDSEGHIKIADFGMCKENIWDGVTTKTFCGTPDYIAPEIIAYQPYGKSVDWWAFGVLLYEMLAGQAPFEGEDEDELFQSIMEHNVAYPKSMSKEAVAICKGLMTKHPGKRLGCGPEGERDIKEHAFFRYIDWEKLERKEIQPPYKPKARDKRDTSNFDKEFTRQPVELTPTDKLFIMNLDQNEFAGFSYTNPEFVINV

Row | IC50 (Recombinant PKCβ) [nM] | Structure (SMILES) | liver TG levels [1] | weight gain, intraperitoneal administration [1] | weight gain, oral administration [1] | diet-induced obesity ([1]; mice (FIG. 12G)) | activation of SREBP-1c plasmid by overexpressed PKCβ in presence of inhibitor [2]
1 | 50 | N#CCCCCCn1cc(C2=C(c3cn(CCCCCC#N)c4ccccc34)C(=O)NC2=O)c2ccccc21 [INST3399] | reduces liver TG levels | reduction in weight gain | caused an increase in weight gain; also recorded: greater weight gain relative to LY333531 | – | –
2 | 10 | Cn1cc(-c2c(-c3c[nH]c4ccccc34)[nH][nH]c2=O)c2ccccc21 [INST5660] | reducing diet-induced liver triglyceride level | – | – | reducing diet-induced obesity | –
3 | – | CN(C)C[C@@H]1CCn2cc(c3ccccc32)C2=C(C(=O)NC2=O)c2cn(c3ccccc23)CCO1 [LY333531, Ruboxistaurin hydrochloride, reference compound] | – | reduction in weight gain | caused an increase in weight gain | – | this activation was blocked
